{"source": "patent US8039505B2", "about": "“Compounds for modulating T-cells” (University of Utah Research Foundation, priority 2007, dated 2011)", "key": {"[1]": {"assay": "14-day twice daily gavage in healthy CD-1 male mice", "assay_type": "in vivo", "settings": "gavage 50, 15 and 5 mg/kg twice per day, 14 days", "description": "Healthy CD-1 male mice were also gavage-fed with compound 3 at concentrations of 50 mg/kg, 15 mg/kg and 5 mg/kg twice per day. […] Hematological, biochemical, immunological and pathological specimen are currently being evaluated."}, "human T-ALL line Jurkat": {"test_system": "human T-ALL line Jurkat", "assay": "MTT cell viability, Jurkat", "assay_type": "cell-based", "settings": "48 hours", "description": "FIG. 3 is a graph showing viability of human T-ALL lines incubated with individual compounds. Specifically, two human ALL lines (B-ALL: RS4; 11 and T-ALL: Jurkat) were incubated on day 0 with serum or with 2.5 μM of the indicated compounds (except for aphidicolin 1 μM and cyclosporine 1.5 μM). 48 hours later, cells were tested for viability by MTT test. Results from the mean of 3 to 4 experiments carried out in triplicate (individual dots) and the mean of all experiments (horizontal bar) are indicated. Results are shown for compounds without a cell cycle effect (B). Viability of untreated cells was arbitrarily set at 1.0.\nCell culture experiments: Cells were incubated at 37° C. in 75 mL flasks in RPMI containing 10% FBS, 5 mL Penicillin/Streptomycin (100×) in a total volume of […]. Cells were counted using a hemocytometer, and 25,000 cells were plated in each well of a 96-well plate. Compounds and controls were added and cells were harvested after a 48 hr incubation period.\nTo assess effects of compounds, cell viability was measured. […] After crystal solubilization with DMSO a blue color (that is proportional to the amount of crystal formed) can be measured. […] Final optical density (OD) obtained from formazan formation was calculated OD=L1-L2 (background). […]"}}}
{"smiles": "C(=NNc1cccc2cccnc12)c1c[nH]c2ccccc12", "note": "[Compound C3, 1H-indole-3-carbaldehyde quinolin-8-ylhydrazone]", "values": [{"measurement": "Adverse effects", "setting": "[1]", "value": "No adverse effects were observed"}, {"measurement": "Response of T cell leukemia line (viability, MTT)", "setting": "human T-ALL line Jurkat; 2.5 μM, FIG. 3", "value": "responded similarly"}, {"measurement": "Effective concentration killing Jurkat in vitro", "setting": "human T-ALL line Jurkat; MTT", "value": 2.5, "unit": "µM"}]}
